{Flc} = fluorescein group
Legend:
Type in all cases: biochemical
Caf1/CNOT7 = target: T1, Caf1/CNOT7 (Homo sapiens, UniProt Q9UIV1); assay: fluorescence-based deadenylase assay; conditions: for inhibition of Caf1/CNOT7 activity: 300 µM compound; for IC50: 15 min pre-incubation at room temperature, 60 min at 30°C, ± standard error of the mean, at least three independent experiments
T1 construct: hexahistidine (N); made in house; host or cells: Escherichia coli BL21 (DE3), plasmid pQE80L
Experimental: (§1) Standard reaction conditions for deadenylase assays were: 20 mM Tris–HCl pH 7.9, 50 mM NaCl, 2 mM MgCl2, 10% glycerol, 1 mM β-mercaptoethanol and 1.0 µM 5′-Flc-labelled RNA substrate in nuclease-free water.
(§2) For fluorescence-based detection of nuclease activity, deadenylase reactions (10–20 µl) were incubated at 30°C for 60 min and stopped by the addition of an equal volume of probe mix containing 1% SDS, and a 5-fold molar excess of 3′-labelled DNA probe. Fluorescence intensity was measured at 25°C (sensitivity setting 70–90) using a BioTek Synergy HT plate reader with 96 or 384 U-shaped black multi-well plates. Filter sets used were: 485 ± 20 nm (excitation) and 528 ± 20 nm (emission). Data analysis and curve-fitting were carried out using Microsoft Excel 2007 and Graphpad Prism 5.0.
Compounds (10 mM in dimethyl sulphoxide, DMSO) were stored in a dry, inert environment at −20°C and dispensed in 96-well plates using an automated facility (TTP Labtech Technology). Compounds were diluted to 0.5 mM using 20% DMSO/water. Aliquots (4 µl; 25% DMSO/water) were transferred to black U-well 384-well plates (Greiner Bio-One) and subsequent automated screening was carried out using a Biomek 3000 liquid handler (Beckman Coulter). After addition of enzyme (8 µl containing 1.0 µM Caf1/CNOT7, 50 mM Tris–HCl pH 7.9, 125 mM NaCl, 5 mM MgCl2, 25% glycerol, 2.5 mM β-mercaptoethanol), plates were left at room temperature for 15 min before the addition of RNA substrate (8 µl). The composition of the final reaction mixture was: 0.4 µM Caf1/CNOT7, 20 mM Tris–HCl pH 7.9, 50 mM NaCl, 2 mM MgCl2, 10% glycerol, 1 mM β-mercaptoethanol, 5% DMSO, 100 µM library compound. After incubation at 30°C for 60 min, 20 µl probe mix (5 µM DNA probe, 1% SDS, 20 mM Tris–HCl pH 8.0, 0.5 mM EDTA) was added. Fluorescence was measured using a BioTek Synergy HT plate reader as described above.

PARN = target: T2, PARN (Homo sapiens, UniProt O95453); assay: fluorescence-based deadenylase assay, selectivity; conditions: 300 µM compound
T2 construct: made in house
T2 sequence (O95453 1-639): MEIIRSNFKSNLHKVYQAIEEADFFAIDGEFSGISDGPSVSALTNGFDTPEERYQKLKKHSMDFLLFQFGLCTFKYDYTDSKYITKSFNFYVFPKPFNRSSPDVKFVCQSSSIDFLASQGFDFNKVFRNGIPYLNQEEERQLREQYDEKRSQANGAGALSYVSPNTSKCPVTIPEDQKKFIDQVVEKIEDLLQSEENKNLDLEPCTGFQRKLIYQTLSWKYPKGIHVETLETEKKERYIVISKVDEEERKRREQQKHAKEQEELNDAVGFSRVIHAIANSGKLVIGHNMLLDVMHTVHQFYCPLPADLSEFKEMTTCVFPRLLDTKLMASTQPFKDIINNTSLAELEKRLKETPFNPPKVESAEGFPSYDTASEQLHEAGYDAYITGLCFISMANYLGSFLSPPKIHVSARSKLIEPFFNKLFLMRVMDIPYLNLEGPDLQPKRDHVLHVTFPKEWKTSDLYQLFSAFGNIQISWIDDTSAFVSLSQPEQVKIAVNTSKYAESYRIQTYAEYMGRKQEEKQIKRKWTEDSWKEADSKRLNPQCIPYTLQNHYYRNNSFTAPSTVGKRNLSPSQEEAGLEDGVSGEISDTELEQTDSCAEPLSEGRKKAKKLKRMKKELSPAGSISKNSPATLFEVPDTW
Experimental: as §1, §2

Ccr4/CNOT6L = target: T3, Ccr4/CNOT6L (Homo sapiens, UniProt Q96LI5); assay: fluorescence-based deadenylase assay, selectivity; conditions: 300 µM compound
T3 construct: lacking the amino terminal leucine-rich repeat domain (amino acids 1–155); made in house; host or cells: E. coli, plasmid pQE80L
Experimental: as §1, §2

[1] = system: HeLa S-100 cytoplasmic extract; assay: fluorescence-based detection of 3′ exonuclease activity in complex mixtures; conditions: 300 µM compound, 0.05 mg/ml S-100 fraction
Experimental: as §1, §2
HeLa cytoplasmic extract (S-100 fraction) was purchased from Boston Biochem (cat no F-372, 5 mg/ml).

T3 sequence (Q96LI5 156-555): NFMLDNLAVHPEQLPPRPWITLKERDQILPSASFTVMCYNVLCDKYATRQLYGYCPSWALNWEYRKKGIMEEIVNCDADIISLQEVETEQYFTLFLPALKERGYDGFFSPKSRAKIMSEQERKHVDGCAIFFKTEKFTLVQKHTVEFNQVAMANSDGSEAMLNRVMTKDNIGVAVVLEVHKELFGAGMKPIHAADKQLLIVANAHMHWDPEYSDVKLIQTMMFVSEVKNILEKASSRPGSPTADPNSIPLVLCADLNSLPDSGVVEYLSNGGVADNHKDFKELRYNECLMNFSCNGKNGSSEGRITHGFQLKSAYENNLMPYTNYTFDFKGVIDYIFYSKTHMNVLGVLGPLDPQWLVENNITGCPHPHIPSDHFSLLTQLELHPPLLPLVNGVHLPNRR
T1 sequence (Q9UIV1 whole entry): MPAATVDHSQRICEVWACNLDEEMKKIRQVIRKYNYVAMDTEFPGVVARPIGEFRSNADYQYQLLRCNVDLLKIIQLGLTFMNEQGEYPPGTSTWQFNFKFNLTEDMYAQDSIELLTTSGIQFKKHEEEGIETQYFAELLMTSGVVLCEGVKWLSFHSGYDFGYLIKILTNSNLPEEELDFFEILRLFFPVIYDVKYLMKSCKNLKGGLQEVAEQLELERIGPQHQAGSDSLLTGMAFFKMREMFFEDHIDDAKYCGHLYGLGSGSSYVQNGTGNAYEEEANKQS

Row | inhibition of Caf1/CNOT7 activity (Caf1/CNOT7) | IC50 (Caf1/CNOT7) [µM] | inhibition of PARN activity (PARN) | inhibition of Ccr4/CNOT6L activity (Ccr4/CNOT6L) | Molecule | Km (Caf1/CNOT7; 0.4 µM Caf1/CNOT7, non-linear regression of Michaelis–Menten equation) [µM] | inhibition of activity of the S-100 fraction [1]
1 |  | 97.5 ± 36.1 |  |  | Cc1ccc(N(CCC#N)C(=O)CSc2nc3cc(S(N)(=O)=O)ccc3n2C)cc1 [NCC-00019223] |  | 
2 | only inhibited Caf1/CNOT7 | 98.7 ± 10.9 | did not inhibit | did not inhibit | Cc1ccccc1C(=O)Nc1nc2ccc(S(=O)(=O)NCC(C)C)cc2s1 [NCC-00001590] |  | 
3 |  | 233 ± 23.5 | no complete inhibition | no complete inhibition | Cc1ccc(S(=O)(=O)NCc2nnc(NC(=O)c3ccc(NC(=O)C(F)(F)F)cc3)s2)cc1 [NCC-00010651] |  | 

More lines, now with the values behind:

Row | Molecule | inhibition of Caf1/CNOT7 activity (Caf1/CNOT7) | IC50 (Caf1/CNOT7) [µM] | inhibition of PARN activity (PARN) | inhibition of Ccr4/CNOT6L activity (Ccr4/CNOT6L) | Km (Caf1/CNOT7; 0.4 µM Caf1/CNOT7, non-linear regression of Michaelis–Menten equation) [µM] | inhibition of activity of the S-100 fraction [1]
4 | COc1ccccc1NC(=O)c1ccc(NC(=O)CNC(=O)C(=O)NCc2cccs2)cc1 [NCC-00039069] | only inhibited Caf1/CNOT7 | 129 ± 18.8 | did not inhibit | did not inhibit |  | 
5 | 5′-CCU UUC CAA AAA AAA A-3′ (CCUUUCCAAAAAAAAA; RNA, 5' {Flc}, backbone not given here; Deadenylase RNA substrate) [oligonucleotide substrate, 16-mer RNA substrate oligonucleotide containing a 5′ fluorescein (Flc) group, reference compound] |  |  |  |  | 10.6 ± 2.9 | 
6 | CC(Cc1ccco1)NC(=O)CSc1nnc(C(=O)Nc2ccc(Cl)cc2)s1 (stereo not drawn) [NCC-00007277] |  | 137 ± 20.3 |  |  |  | strongest effect
